Test results reported in US9976165B2, “Methods for increasing molecular diversity of polyketides and non-ribosomal proteins” (Isomerase Therapeutics Limited, priority 2013, dated 2018).

Assays:
[1] = target: FKBP12 (Homo sapiens, UniProt P62942); test: FKBP12 PPIase assay (inhibition of peptidyl-prolyl isomerase activity); type: biochemical; conditions: 6 concentrations in duplicate, data fitted to a Ki curve
[2] = Murine PLP T cell proliferation assay (PLP assay); type: cell-based; conditions: Mus musculus, off-target (mTOR-driven) immunosuppressive potency

Chain of FKBP12 (P62942 whole entry, species assumed): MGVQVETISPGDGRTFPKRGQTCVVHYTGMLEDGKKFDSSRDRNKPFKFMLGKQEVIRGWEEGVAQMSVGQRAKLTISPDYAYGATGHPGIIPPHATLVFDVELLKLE

Ki [1] [µM]	Structure (SMILES)	IC50 [2] [µM]
0.095	CO[C@H]1C[C@@H]2CC[C@@H](C)[C@@](O)(O2)C(=O)C(=O)N2CCCC[C@H]2C(=O)O[C@H](/C(C)=C/C[C@H](O)[C@H](C)C[C@H]2CC[C@H](O)CC2)CC(=O)[C@H](C)C[C@H](C)/C=C/C=C/C=C/1C [Compound 21]	–
0.18	CO[C@H]1C[C@@H]2CC[C@@H](C)[C@](O)(CC(=O)N3CCCC[C@H]3C(=O)OC([C@H](C)C[C@@H]3CC[C@@H](O)[C@H](O)C3)C/C=C(\C)[C@@H](O)CC(=O)[C@H](C)CC[C@H](C)/C=C/C=C/C=C/1C)O2 (stereo partly drawn) [Compound 9]	–
–	CO[C@H]1C[C@@H]2CC[C@@H](C)[C@@](O)(O2)C(=O)C(=O)N2CCCC[C@H]2C(=O)OC([C@H](C)C[C@H]2CC[C@H](O)CC2)C[C@@H](O)CC(=O)[C@H](C)CC[C@H](C)/C=C/C=C/C=C/1C (stereo partly drawn) [Compound 4]	4.46
